Activation data for 22 compounds are collected here from patent US9776962B2, “Aromatic compounds with GPR40 agonistic activity” (TAKEDA PHARMACEUTICAL COMPANY LIMITED, priority 2013, dated 2017).

Each structure is given as a SMILES string.

For the experiment, the target named is T1, human GPR40 (Homo sapiens, UniProt O14842).
T1 construct: expressed in transfected cells
T1 sequence (O14842 whole entry): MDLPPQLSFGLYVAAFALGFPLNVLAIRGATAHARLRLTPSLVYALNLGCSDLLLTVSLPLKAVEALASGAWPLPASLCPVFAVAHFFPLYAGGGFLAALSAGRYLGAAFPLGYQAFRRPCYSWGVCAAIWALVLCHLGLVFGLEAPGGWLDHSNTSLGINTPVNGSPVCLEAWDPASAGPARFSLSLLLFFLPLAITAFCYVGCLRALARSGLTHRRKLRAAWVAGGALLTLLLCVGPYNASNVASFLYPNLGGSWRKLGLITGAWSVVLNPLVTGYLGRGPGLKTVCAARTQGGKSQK
The experiment in a line: Evaluation of human GPR40 agonist activity with increase in intracellular Ca2+ concentration as an index (FLIPR). The experiment is classed as cell-based. The conditions noted are these: test compound 1 μM; CHO(dhfr−) cells stably expressing human GPR40; 100% = 10 μM compound of Example 153, 0% = DMSO. As to the method:
Plasmid hGPR40/pAKKO-1.11H for mammalian cells expression, wherein cDNA fragment (SEQ ID NO: 1) encoding the full-length human GPR40 was incorporated into an expression vector pAKKO-1.11H (Biochimica et Biophysica Acta vol. 1219 pp. 251-259 (1994)), was transfected into CHO-dhfr(−) cells (ATCC, CRL-9096) by using Lipofectamine 2000 (Invitrogen:11668-019). After transfection, the limiting dilution-culture method was performed to select clone in selection medium (nucleic acid-free α-MEM (Invitrogen:12561-056)) containing 10% dialyzed bovine serum (Invitrogen:26400-044)). The expression level of human GPR40 mRNA was confirmed by TaqMan PCR (Life Technologies), and the intracellular calcium mobilization activity of GPR40 ligand (γ-linolenic acid) was confirmed by FLIPR (Molecular Devices), and a clone of human GPR40 expressing CHO cells was selected.
Evaluation of Human GPR40 Agonist Activity with Increase in Intracellular Ca^2+ Concentration as an Index
CHO(dhfr−) cells that stably expressed human GPR40 were suspended in MEMα (Nikken Bio Medical Laboratory) containing 10% dialyzed bovine serum (JR Scientific), 10 mM HEPES (Life Technologies), 100 U/mL penicillin, 100 μg/mL streptomycin (Life Technologies), and plated on a 384 well black/clear cell culture plate at 10,000 cells/well. After culture overnight in a CO2 incubator at 37° C., the culture supernatant was removed, and loading buffer [Ca^2+ probe attached to Calcium Kit II-iCellux (DOJINDO) was dissolved in assay buffer (20 mM HEPES, 0.1% fatty acid-free BSA (Sigma-Aldrich), 2.5 mM probenecid (DOJINDO)-containing HESS (Life Technologies))] was added at 30 μL/well. After leaving for 1 hr at room temperature under light shielding, assay buffer containing the test compound at a final concentration of 1 μM was added at 10 μL/well in FLIPR Tetra (Molecular Devices), and the fluorescence amount was successively measured. Human GPR40 agonist activity calculated using an increase in the intracellular Ca^2+ concentration as an index, wherein the activity of 10 μM of the compound of Example 153 was 100%, and the activity when DMSO was added instead of the test compound was 0%.
The compound `COc1ccc(C(=O)N(CC2CCC2)c2ccccn2)c(N2CCC(COc3cc(C(CC(=O)O)C4CC4)ccn3)CC2)c1` (stereo not shown) [Example 118, 3-(2-((1-(2-((cyclobutylmethyl)(pyridin-2-yl)carbamoyl)-5-methoxyphenyl)piperidin-4-yl)methoxy)pyridin-4-yl)-3-cyclopropylpropanoic acid] came in with an activation at 1 µM of 103%.
Regarding `COc1ccc(C(=O)N(CC(C)(C)O)c2ccccn2)c(N2CCC(COc3cc(C(CC(=O)O)C4CC4)ccn3)CC2)c1` (stereo not shown) [Example 119, 3-cyclopropyl-3-(2-((1-(2-((2-hydroxy-2-methylpropyl)(pyridin-2-yl)carbamoyl)-5-methoxyphenyl)piperidin-4-yl)methoxy)pyridin-4-yl)propanoic acid], the activation at 1 µM is 52%.
As to `COc1ccc(C(=O)N(CC(C)(C)F)c2ccccn2)c(N2CCC(COc3cc(C(CC(=O)O)C4CC4)ccn3)CC2)c1` (stereo not shown) [Example 120, 3-cyclopropyl-3-(2-((1-(2-((2-fluoro-2-methylpropyl)(pyridin-2-yl)carbamoyl)-5-methoxyphenyl)piperidin-4-yl)methoxy)pyridin-4-yl)propanoic acid], the activation at 1 µM was determined as 100%.
For `COc1ccc(C(=O)N(c2ccccn2)C(C)C(C)C)c(N2CCC(COc3cc(C(CC(=O)O)C4CC4)ccn3)CC2)c1` (stereo not shown) [Example 121, 3-cyclopropyl-3-(2-((1-(5-methoxy-2-((3-methylbutan-2-yl)(pyridin-2-yl)carbamoyl)phenyl)piperidin-4-yl)methoxy)pyridin-4-yl)propanoic acid] the value was 95%.
`COc1ccc(C(=O)N(CC(C)C)c2cccc(C)n2)c(N2CCC(COc3cc(C(CC(=O)O)C4CC4)ccn3)CC2)c1` (stereo not shown) [Example 122, 3-cyclopropyl-3-(2-((1-(5-methoxy-2-((2-methylpropyl)(6-methylpyridin-2-yl)carbamoyl)phenyl)piperidin-4-yl)methoxy)pyridin-4-yl)propanoic acid] had an activation at 1 µM of 101%.
Compound `COc1ccc(C(=O)N(CC(C)C)c2cc(C)ccn2)c(N2CCC(COc3cc(C(CC(=O)O)C4CC4)ccn3)CC2)c1` (stereo not shown) [Example 123, 3-cyclopropyl-3-(2-((1-(5-methoxy-2-((2-methylpropyl)(4-methylpyridin-2-yl)carbamoyl)phenyl)piperidin-4-yl)methoxy)pyridin-4-yl)propanoic acid] returned an activation at 1 µM of 99%.
Turning to `COc1ccc(C(=O)N(CC2CC2)c2cccc(C)n2)c(N2CCC(COc3cc(C(CC(=O)O)C4CC4)ccn3)CC2)c1` (stereo not shown) [Example 124, 3-cyclopropyl-3-(2-((1-(2-((cyclopropylmethyl)(6-methylpyridin-2-yl)carbamoyl)-5-methoxyphenyl)piperidin-4-yl)methoxy)pyridin-4-yl)propanoic acid], the activation at 1 µM came out at 96%.
In turn, `COc1ccc(C(=O)N(CC2CC2)c2cc(C)ccn2)c(N2CCC(COc3cc(C(CC(=O)O)C4CC4)ccn3)CC2)c1` (stereo not shown) [Example 125, 3-cyclopropyl-3-(2-((1-(2-((cyclopropylmethyl)(4-methylpyridin-2-yl)carbamoyl)-5-methoxyphenyl)piperidin-4-yl)methoxy)pyridin-4-yl)propanoic acid] came in with an activation at 1 µM of 95%.
For `COc1ccc(C(=O)N(CC(C)(F)F)c2ccccn2)c(N2CCC(COc3cc(C(CC(=O)O)C4CC4)ccn3)CC2)c1` (stereo not shown) [Example 126, 3-cyclopropyl-3-(2-((1-(2-((2,2-difluoropropyl)(pyridin-2-yl)carbamoyl)-5-methoxyphenyl)piperidin-4-yl)methoxy)pyridin-4-yl)propanoic acid] the value was 99%; for `COc1ccc(C(=O)N(CC(C)C)c2ccnc(OC)c2)c(N2CCC(COc3cc(C(CC(=O)O)C4CC4)ccn3)CC2)c1` (stereo not shown) [Example 127, 3-cyclopropyl-3-(2-((1-(5-methoxy-2-((2-methoxypyridin-4-yl)(2-methylpropyl)carbamoyl)phenyl)piperidin-4-yl)methoxy)pyridin-4-yl)propanoic acid], 94%.
In turn, `COc1ccc(C(=O)N(CC(C)C)c2cccc(OC)n2)c(N2CCC(COc3cc(C(CC(=O)O)C4CC4)ccn3)CC2)c1` (stereo not shown) [Example 128, 3-cyclopropyl-3-(2-((1-(5-methoxy-2-((6-methoxypyridin-2-yl)(2-methylpropyl)carbamoyl)phenyl)piperidin-4-yl)methoxy)pyridin-4-yl)propanoic acid] gave an activation at 1 µM of 103%.
Regarding `COc1ccc(C(=O)NCC(F)(F)C(F)(F)F)c(N2CCC(COc3cc(C(CC(=O)O)C4CC4)ccn3)CC2)c1` (stereo not shown) [Example 129, 3-cyclopropyl-3-(2-((1-(5-methoxy-2-((2,2,3,3,3-pentafluoropropyl)carbamoyl)phenyl)piperidin-4-yl)methoxy)pyridin-4-yl)propanoic acid], the activation at 1 µM was 81%.
For `COc1ccc(C(=O)N(C)CC(F)(F)C(F)(F)F)c(N2CCC(COc3cc(C(CC(=O)O)C4CC4)ccn3)CC2)c1` (stereo not shown) [Example 130, 3-cyclopropyl-3-(2-((1-(5-methoxy-2-(methyl(2,2,3,3,3-pentafluoropropyl)carbamoyl)phenyl)piperidin-4-yl)methoxy)pyridin-4-yl)propanoic acid] the value was 100%.
As for `COc1ccc(C(=O)N(CC(C)(C)OC)c2ccccn2)c(N2CCC(COc3cc(C(CC(=O)O)C4CC4)ccn3)CC2)c1` (stereo not shown) [Example 131, 3-cyclopropyl-3-(2-((1-(5-methoxy-2-((2-methoxy-2-methylpropyl)(pyridin-2-yl)carbamoyl)phenyl)piperidin-4-yl)methoxy)pyridin-4-yl)propanoic acid], the figure is 85%; as for `COc1ccc(C(=O)N(CC(C)C)c2cccc(C#N)c2)c(N2CCC(COc3cc(C(CC(=O)O)C4CC4)ccn3)CC2)c1` (stereo not shown) [Example 132, 3-(2-((1-(2-((3-cyanophenyl)(2-methylpropyl)carbamoyl)-5-methoxyphenyl)piperidin-4-yl)methoxy)pyridin-4-yl)-3-cyclopropylpropanoic acid], 99%; as for `COc1ccc(C(=O)N(CC(C)C)c2ccccc2)c(N2CCC(COc3cc(C(CC(=O)O)C4CC4)ccn3)CC2)c1` (stereo not shown) [Example 133, 3-cyclopropyl-3-(2-((1-(5-methoxy-2-((2-methylpropyl)(phenyl)carbamoyl)phenyl)piperidin-4-yl)methoxy)pyridin-4-yl)propanoic acid], 98%.
Consider `COc1ccc(C(=O)N(CC(C)(C)C#N)c2ccccn2)c(N2CCC(COc3cc(C(CC(=O)O)C4CC4)ccn3)CC2)c1` (stereo not shown) [Example 134, 3-(2-((1-(2-((2-cyano-2-methylpropyl)(pyridin-2-yl)carbamoyl)-5-methoxyphenyl)piperidin-4-yl)methoxy)pyridin-4-yl)-3-cyclopropylpropanoic acid], for which the activation at 1 µM came out at 84%.
Compound `COc1ccnc(N(CC(C)C)C(=O)c2ccc(OC)cc2N2CCC(COc3cc(C(CC(=O)O)C4CC4)ccn3)CC2)c1` (stereo not shown) [Example 135, 3-cyclopropyl-3-(2-((1-(5-methoxy-2-((4-methoxypyridin-2-yl)(2-methylpropyl)carbamoyl)phenyl)piperidin-4-yl)methoxy)pyridin-4-yl)propanoic acid] returned an activation at 1 µM of 94%.
`COc1ccc(C(=O)N(CC(C)C)c2cccnc2OC)c(N2CCC(COc3cc(C(CC(=O)O)C4CC4)ccn3)CC2)c1` (stereo not shown) [Example 136, 3-cyclopropyl-3-(2-((1-(5-methoxy-2-((2-methoxypyridin-3-yl)(2-methylpropyl)carbamoyl)phenyl)piperidin-4-yl)methoxy)pyridin-4-yl)propanoic acid]: the activation at 1 µM was determined as 95%.
On to `COc1ccc(C(=O)N(CC(F)F)c2ccccn2)c(N2CCC(COc3cc(C(CC(=O)O)C4CC4)ccn3)CC2)c1` (stereo not shown) [Example 137, 3-cyclopropyl-3-(2-((1-(2-((2,2-difluoroethyl)(pyridin-2-yl)carbamoyl)-5-methoxyphenyl)piperidin-4-yl)methoxy)pyridin-4-yl)propanoic acid], for which the activation at 1 µM worked out at 96%.
`COc1ccc(C(=O)N(CC(F)(F)C(F)F)c2ccccn2)c(N2CCC(COc3cc(C(CC(=O)O)C4CC4)ccn3)CC2)c1` (stereo not shown) [Example 138, 3-cyclopropyl-3-(2-((1-(5-methoxy-2-(pyridin-2-yl(2,2,3,3-tetrafluoropropyl)carbamoyl)phenyl)piperidin-4-yl)methoxy)pyridin-4-yl)propanoic acid] displayed an activation at 1 µM of 102%.
`COc1ccc(C(=O)N(CC2CC2(F)F)c2ccccn2)c(N2CCC(COc3cc(C(CC(=O)O)C4CC4)ccn3)CC2)c1` (stereo not shown) [Example 139, 3-cyclopropyl-3-(2-((1-(2-(((2,2-difluorocyclopropyl)methyl)(pyridin-2-yl)carbamoyl)-5-methoxyphenyl)piperidin-4-yl)methoxy)pyridin-4-yl)propanoic acid] showed an activation at 1 µM of 96%.
